Data published in patent publication US7662361B2, “Methods and compositions for modulating drug activity through telomere damage” (priority 1999, dated 2010).

Columns and labels:
PC3 cells = test: Time course of apoptotic changes (caspase 3, PARP cleavage, DNA fragmentation, DNA-histone release); assay type: cell-based, human; details: 20 nM paclitaxel
Method: Caspase Activity. The activity of Caspase 3 was measured using the ApoAlert CPP32 assay (Clontech Laboratories, Palo Alto, Calif.). Briefly, 1×10^6 cells were lysed using the lysis buffer provided in the assay kit. The lysate was stored at −20° C. and analyzed within 1 week. Enzyme activity was detected by the cleavage of the substrate, Asp-Glu-Val-Asp-7-amino-4-trifluoromethyl coumarin (DEVD-AFC) to AFC, which emits a yellow-green fluorescence at 505 nm. The increase in caspase activity is measured as the ratio of the fluorescence intensity of a agent-treated sample (e.g., paclitaxel) to that of control cells collected at the same time.
PARP Cleavage. […] PARP cleavage was analyzed by immunoblotting. […] Protease inhibitors were used to minimize proteolytic cleavage of PARP during processing. […] Samples were sonicated on ice, resuspended using a 21 gauge needle, and then incubated at 75° C. for 15 min. After centrifugation, an aliquot representing 1.5×10^5 cells was loaded on a 10% SDS polyacrylamide gel and run at 30 mA overnight. The gel was transferred onto a […] nitrocellulose membrane by electroblotting. The membrane was incubated with blocking solution (5% non-fat dry milk in PBS containing 0.1% Tween 20) for 1 hr, followed by incubation with the PARP monoclonal antibody overnight at 4° C. and subsequently the anti-mouse immunoglobulin. After washing the membrane in PBS twice for 5 min each and once for 30 min, the immunoreactive bands were visualized by incubation of the membrane with the chemiluminescence immunoblot kit.
Release of DNA-Histone Complex to Cytoplasm. The level of DNA-histone mono- and oligonucleosomes in the cytoplasm was measured using the cell death detection ELISA kit. Briefly, 5000 cells were lysed in the lysis buffer. The cytoplasmic fractions of the lysates were placed in a […] precoated with mouse antihistone primary antibody and mouse anti-DNA antibody conjugated to peroxidase. The peroxidase substrate, 2,2′-azido-di-[3-ethylbenzthiazoline sulfonate], was applied and the absorbance at 405 nm was measured.
DNA Fragmentation. […] DNA was extracted twice with phenol/chloroform (1:1) and once with chloroform, and precipitated by adding 0.2 volume 10 M […] and 2 volumes ethanol. The pellet obtained after centrifugation was resuspended in 100 mM Tris-HCl and 10 mM EDTA (pH 8.0). The amount of DNA was measured by the absorbance at 260 nm, using a spectrophotometer. Samples showing a 260:280 absorbance ratio of >1.8, which ascertained the purity of the isolated DNA, were analyzed by gel electrophoresis. […] The DNA laddering pattern was visualized by UV transillumination and photographed.

FaDu cells = test: SRB paclitaxel cytotoxicity in hTR antisense transfected cells; assay type: cell-based; details: Homo sapiens, +antisense + IPTG cells (IPTG 44 days), paclitaxel 96 hours, read-out: IC50 of paclitaxel, clone #1
Method: In vitro drug activity evaluation. Drug effect was measured in three ways, i.e., by enumerating the number of cells that remained attached in culture flask, by enumerating the number of cells that detached from the growth surface, and changes in levels of apoptosis. The first measurement represents the overall drug effect, i.e., the combination of cytostatic and cytotoxic effects, whereas the latter two measurements reflect the cytotoxic effect. The remaining cell number after drug treatment was measured using the sulforhodamine B (SRB) assay which stains for cellular protein (Skehan P et al. (1990) J Natl Cancer Inst 82:1107-1112).
In brief, cells were seeded onto 96-well plates. To avoid changes in drug concentration caused by excessive evaporation of medium in wells located at the edge of the plate only the inner wells in 96-well plates were used. The outer wells contained only tissue culture media to serve as blanks. […] The amount of SRB was measured by absorbance at 490 nm using an EL 340 microplate biokinetics reader (Bio-Tek Instruments, Inc., Winooski, Vt.). The absorbance is proportional to the number of cells attached to the culture plate. […]
Effect of hTR antisense on the cytotoxic effect of paclitaxel. […] The cytotoxic effect of paclitaxel was quantified using the SRB method which measures the total cellular proteins. […]

`CC(=O)O[C@H]1C(=O)[C@@]2(C)[C@H]([C@H](OC(=O)c3ccccc3)[C@]3(O)C[C@H](OC(=O)[C@H](O)[C@@H](NC(=O)c4ccccc4)c4ccccc4)C(C)=C1C3(C)C)[C@]1(OC(C)=O)CO[C@@H]1C[C@@H]2O` [paclitaxel] was tested, and the “caspase activation, time of occurrence” value (PC3 cells; attached cells) was 24 h, the PARP cleavage completed (PC3 cells; detached cells) was less than 72 h and the “PARP cleavage first detected” value (PC3 cells; detached cells) was 24 h. The “caspase activation first detected” value (PC3 cells; detached cells) was 12 h, the caspase activation peak (PC3 cells; detached cells) was 36 h and the “internucleosomal DNA fragmentation and release of DNA-histone complex first detected” value (PC3 cells; detached cells) was 24 h. The IC50 (FaDu cells) was 1.3 nM.
